{
  "source": "paper PMC3102446",
  "about": "“Different Effects of Mg^2+ and Zn^2+ on the Two Sites for Alkylammonium Compounds in Pseudomonas aeruginosa Phosphorylcholine Phosphatase” (Enzyme Research, 2011)",
  "data": [
    {"molecular_target": "T1, Pseudomonas aeruginosa phosphorylcholine phosphatase (PchP) (Pseudomonas aeruginosa, UniProt Q9HTR2)", "T1 construct": "His-tag fusion produced in E. coli BL21 CodonPlus; purified with EDTA to remove residual metal", "T1 sequence (Q9HTR2 23-349)": "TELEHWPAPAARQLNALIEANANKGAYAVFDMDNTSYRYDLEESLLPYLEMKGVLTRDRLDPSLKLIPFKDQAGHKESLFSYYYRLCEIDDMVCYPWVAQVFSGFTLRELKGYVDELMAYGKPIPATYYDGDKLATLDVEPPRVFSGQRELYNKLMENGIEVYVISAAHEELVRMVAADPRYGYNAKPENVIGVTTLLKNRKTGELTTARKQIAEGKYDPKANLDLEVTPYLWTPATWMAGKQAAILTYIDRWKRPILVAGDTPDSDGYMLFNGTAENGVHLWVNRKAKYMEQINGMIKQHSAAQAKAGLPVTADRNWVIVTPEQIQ", "assay": "biochemical", "details": "not given", "from_the_text": "inhibition of p-NPP hydrolysis, DYNAFIT global fit on Pseudomonas aeruginosa phosphorylcholine phosphatase (PchP)", "units": {"Ki": "µM"}, "values": [
      {"molecule": "C[N+](C)(C)CCCCCCCCCC[N+](C)(C)C", "note": "[Decamethonium]", "Ki": "80 ± 10"},
      {"molecule": "C[N+](C)(C)CCCl", "note": "[Chlorocholine]", "Ki": "120 ± 10"},
      {"molecule": "C[N+](C)(C)CCO", "note": "[Choline]", "Ki": "100 ± 10"},
      {"molecule": "CN(C)C", "note": "[Trimethylamine]", "Ki": "60 ± 10"},
      {"molecule": "CC(C)(N)CO", "note": "[2-amino-2-methyl-1-propanol]", "Ki": "210 ± 10"},
      {"molecule": "COc1cc2c3cc1Oc1cc(ccc1O)C[C@@H]1c4c(cc(OC)c(O)c4Oc4ccc(cc4)C[C@@H]3N(C)CC2)CC[N+]1(C)C", "note": "[Tubocurarine]", "Ki": "2510 ± 210"},
      {"molecule": "CN(C)C(=O)Oc1cccc([N+](C)(C)C)c1", "note": "[Neostigmine]", "Ki": "570 ± 50"},
      {"molecule": "C[N+](C)(C)CCCCCC[N+](C)(C)C", "note": "[Hexamethonium]", "Ki": "80 ± 10"},
      {"molecule": "N[C@H](CO)Cc1c[nH]cn1", "note": "[L-histidinol]", "Ki": "310 ± 80"},
      {"molecule": "C[N+](C)(C)CC(=O)[O-]", "note": "[Betaine]", "Ki": "1440 ± 90"},
      {"molecule": "C[N+](C)(C)C", "note": "[Tetramethylammonium]", "Ki": "35 ± 8"}
    ]},
    {"test_system": "C[N+](C)(C)CCOP(=O)([O-])O", "assay": "purified protein", "details": "0.25-2 mM Mg2+, 100 mM sodium acetate pH 5.0, 37 °C, kcat1 of productive EAS complex", "units": {"Km": "mM", "kcat": "s⁻¹"}, "excerpt": "Pi release assay, DYNAFIT global fit on Pseudomonas aeruginosa phosphorylcholine phosphatase (PchP)", "values": [
      {"molecule": "Pseudomonas aeruginosa phosphorylcholine phosphatase (PchP) (Pseudomonas aeruginosa PAO1)", "Km": "0.021 ± 0.008", "kcat": "121 ± 8"}
    ]}
  ]
}
